BindingDB's records for patent US12344597 (Idorsia Pharmaceuticals, 2025)

Target: Lysophosphatidic acid receptor 1 (Homo sapiens, UniProt Q92633)
Assay: Beta-Arrestin Recruitment Assay
Excerpt: The Tango™ EDG2-bla U2OS cells are obtained from Invitrogen. These cells contain the human LPA1 receptor cDNA linked to a TEV protease site and a Gal4-VP16 transcription factor integrated into the Tango™ GPCR-bla U2OS parental cell line. This parental cell line stably expresses a beta-arrestin/TEV protease fusion protein and the beta-lactamase (bla) reporter gene under the control of a UAS response element. Upon LPA (agonist) binding, LPA1 receptor gets activated, leading to arrestin-protease recruitment and proteolytic release of the transcription factor: The transcription factor then regulates transcription of a beta-lactamase reporter construct, which is measured upon addition of the live-cell substrate.10′000 Tango™ EDG2-bla U2OS cells are seeded in a 384-well black with clear bottom plate in 30 μl Freestyle 293 Expression Medium (Invitrogen) and incubated for 20 h at 37° C., 5% CO2. […] IC50 is the concentration of antagonist inhibiting 50% of the maximal response.

Chain of Lysophosphatidic acid receptor 1 (Q92633 whole entry): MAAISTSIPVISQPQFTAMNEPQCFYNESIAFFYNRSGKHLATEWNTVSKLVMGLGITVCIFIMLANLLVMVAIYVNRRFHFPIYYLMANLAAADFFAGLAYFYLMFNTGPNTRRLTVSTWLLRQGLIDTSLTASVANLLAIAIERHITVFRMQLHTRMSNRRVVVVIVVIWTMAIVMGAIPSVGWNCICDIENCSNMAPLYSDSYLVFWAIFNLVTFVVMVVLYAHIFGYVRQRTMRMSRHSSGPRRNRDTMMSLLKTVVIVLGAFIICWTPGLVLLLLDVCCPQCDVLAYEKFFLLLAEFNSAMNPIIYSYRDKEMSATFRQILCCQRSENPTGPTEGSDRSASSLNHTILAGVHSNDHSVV

An IC50 of 4 nM was found for `Cc1ccc(NC(=O)C2(c3ccccc3C(C)C)CN(CCC#N)C2)c(OC(F)F)n1` [US12344597, Example 11-16] in this work.
